The values below come from PubChem BioAssay AID602210 (Sanford-Burnham Center for Chemical Genomics, 2012).

One may read the IC50 as the concentration that gives 50% inhibition.

Activity calls are given as the source filed them. How the calls were made is not given here.

The test is described as follows: H9c2 cardiomyoblast viability modulators under 2-DG – cell-based, ATPlite luminescence, rat, set 2, myocardial damage modulator project, dose response (AID 602210). The note with it: H9c2 rat cardiomyoblasts, 2-deoxyglucose-induced death, 2 h. For orientation: ATP-based viability assays read luminescence as a measure of living cells.
In the case of `CCC(=O)Oc1cccc(C(=O)Nc2ccc(-c3nnc(-c4ccco4)o3)cc2)c1`, the IC50 was > 79 µM (inactive).
With `O=C(C(=O)N(Cc1ccccc1)Cc1ccccc1)c1c(-c2ccccc2)[nH]c2ccccc12` the figure was 1.88 µM; with `NC(=O)c1cc2ccccc2o/c1=N\NC(=O)c1ccc(F)cc1`, 7.99 µM; with `Cc1ccc(CN(C(=O)CNC(=O)c2cccs2)C(C(=O)NCC2CCCO2)c2ccccc2)cc1` (stereo not drawn), 19.1 µM (inactive).
Turning to `c1cncc(-c2nc(NCC3COc4ccccc4O3)c3ccccc3n2)c1` (stereo not drawn), the IC50 was > 79 µM (inactive).
As to `CN(C(=O)c1sc2nc(N3CCOCC3)c3c(c2c1N)CCCC3)c1ccccc1`, the concentration for half-maximal inhibition (IC50) is 9.97 µM.
The value for `COc1ccc(CN(C)C(=O)C(Cc2ccccc2)NC(=O)c2ccccc2)cc1F` (stereo not drawn) was 10.5 µM (inactive); that for `CCN1C(=O)/C(=C/c2nc3ccccc3c(=O)[nH]2)c2ccccc21` was 27.9 µM (inactive); that for `N#C/C(=C\Nc1ccc2c(c1)OCCO2)c1nc2ccccc2[nH]1` was 17.3 µM (inactive).
Regarding `S=C(Nc1ccc(N2CCOCC2)cc1)Nc1ccc2nc(-c3ccco3)c(-c3ccco3)nc2c1`, the IC50 is 11.3 µM (inactive).
With `CCOC(=O)C1CCN(c2cc3c(cc2NC(=O)c2ccc(F)cc2)n(C)c(=O)n3C)CC1`, the IC50 is 28.5 µM (inactive).
With `COc1cccc(/C=N/Nc2nc3ccccc3n3cnnc23)c1` the figure was 3.49 µM; with `O=c1oc2ccc3ccccc3c2cc1-c1nnc(-c2ccccc2)o1`, > 79 µM (inactive); with `Cc1ccc(-c2nnc3ccc(SCC(=O)N4CCCc5ccccc54)nn23)cc1`, 14 µM (inactive).
Take `COc1cc(C(=O)Nc2ccc(NC(=O)c3cccc(Cl)c3)nc2)cc(OC)c1OC`: the IC50 was > 79 µM (inactive).
`COc1cccc(-c2cnc3c(NC=O)cc(-c4cccc(NC(C)=O)c4)cn23)c1`: the IC50 is 6.84 µM.
`COc1ccc(-c2ccc3c(c2)S(=O)(=O)c2cccc(C(=O)N4CCN(c5c(Cl)cncc5Cl)CC4)c2C3=O)cc1OC`: the IC50 was 8.36 µM.
The value for `COC(=O)c1cccc(S(=O)(=O)N(Cc2ccco2)Cc2cc3cc(OC)ccc3[nH]c2=O)c1` was 11.6 µM (inactive); that for `COc1cc(NC(=O)c2cc3ccccc3cc2OC)ccc1NC(=O)c1cccs1` was 3.78 µM.
Regarding `O=C(COC(=O)c1cc(-c2cccnc2)nc2ccccc12)Nc1ccc(F)cc1F`, the IC50 was 32.5 µM (inactive).
The value for `COc1ccc2[nH]c(=O)c(CN(CC3CCCO3)S(=O)(=O)c3ccccc3F)cc2c1` (stereo not drawn) was 19.2 µM (inactive).
For `COCCCNC(=O)/C(C#N)=C1\N=C(NC(=O)c2cccs2)c2ccccc21`, the IC50 was > 79 µM (inactive).
Take `COc1nc(N/N=C/c2cc3c(cc2Br)OCO3)nc(N2CCOCC2)n1`: the IC50 is 17.4 µM (inactive).
On to `Cc1ccc(C(=O)Nc2cccc(C(F)(F)F)c2)cc1NC(=O)c1csc(-c2ccncc2)n1`, for which the IC50 was > 79 µM (inactive).
With `Nc1c(C(=O)NC2CC2)c2nc3ccccc3nc2n1-c1ccc2c(c1)OCO2` the figure was > 79 µM (inactive).
With `Nc1cc2[nH]c(=O)c3ccccc3c2cc1[N+](=O)[O-]` the figure was 24.4 µM (inactive).
The value for `COCCn1nnnc1CN(CCc1ccccc1)Cc1cc2cc(OC)ccc2[nH]c1=O` was > 79 µM (inactive); that for `C[C@H](CO)N1C[C@H](C)[C@@H](CN(C)C(=O)Nc2ccc3c(c2)OCO3)Oc2c(NC(=O)Nc3ccc(C(F)(F)F)cc3)cccc2C1=O` was > 79 µM (inactive); that for `COC(=O)/C(=C(O)\C=C\c1ccccc1[N+](=O)[O-])c1nc2ccccc2[nH]1` was 13.5 µM (inactive).
Regarding `COc1cc(/C=C/c2nc3ccccc3c(=O)n2-c2ccc(O)cc2)ccc1O`, the IC50 was > 79 µM (inactive).
Consider `CC(=O)c1ccc(-c2ccc(C(=O)Nc3nc(-c4ccccn4)cs3)o2)cc1`, for which the IC50 is 5.91 µM.
The value for `COc1ccc(C(=O)Nc2cccc(NC(=O)c3ccc(OC)c(OC)c3)n2)cc1OC` was 5.47 µM.
On to `CC12CCC3C(CCC4CC(O)CCC43C)C1CC(O)C2` (stereo not drawn), for which the IC50 was 10.4 µM (inactive).
The value for `OC1CCN(c2c3c(nc4cc(-c5cccc(F)c5)nn24)CCCC3)CC1` was 23.8 µM (inactive); that for `CC(C)(C)OC(=O)C[C@@H]1C/C=C\C[C@@H](CC(=O)N[C@@H](CO)Cc2ccccc2)C(=O)NC[C@@H](c2ccccc2)OC1=O` was 22.6 µM (inactive); that for `Clc1ccccc1-c1nc(N/N=C/c2cccnc2)c2ccccc2n1` was 18.6 µM (inactive).
The value for `CCOc1ccc(-n2cc(-c3ccccc3)c3c(N4CCOCC4)ncnc32)cc1` was 10.3 µM (inactive).
With `O=C(CSc1nnc(Cc2cccs2)n1CCc1ccccc1)N1CCCc2ccccc21` the figure was 13.9 µM (inactive).
For the molecule `COc1ccc(-c2cc(C(=O)NNC(=O)c3csc(N4CCOCC4)n3)c3ccccc3n2)cc1`, the half-maximal inhibitory concentration (IC50) was 7.31 µM.
With `CC(=O)c1cccc(Nc2nc3ccccc3n3cnnc23)c1` the figure was 8.67 µM; with `C[C@H](NC(=O)c1nc[nH]c1C(=O)NCC(=O)OCc1ccccc1)c1ccccc1`, 14.3 µM (inactive); with `Cc1ccc(NC(=O)c2nc[nH]c2C(=O)NCCCCCCNC(=O)c2[nH]cnc2C(=O)Nc2ccc(C)cc2)cc1`, 0.24 µM.
The value for `COc1cc(-c2cc3nc(NCCc4ccc(S(N)(=O)=O)cc4)ccn3n2)cc(OC)c1OC` was 15.6 µM (inactive).
As to `CC(OC(=O)c1cc(-c2cccnc2)nc2ccccc12)C(=O)Nc1ccc2ccccc2c1` (stereo not drawn), the IC50 is 14.3 µM (inactive).
Turning to `COc1cc(-c2cc3nc(NCCOc4ccccc4)ccn3n2)cc(OC)c1OC`, the IC50 is 15.8 µM (inactive).
With `CC(C)N1C(=O)S/C(=C/c2ccc3c(c2)n(C)c(=O)n3C)C1=O` the figure was 7.32 µM; with `O=C(Nc1ccccc1)c1nc[nH]c1C(=O)NCCCCCCNC(=O)c1[nH]cnc1C(=O)Nc1ccccc1`, 4.44 µM; with `COc1cc(C(=O)N/N=C/c2ccc(OC(=O)c3cccc(C)c3)c(OC)c2)ccc1O`, 14.2 µM (inactive).
In the case of `C[C@H]1Cn2cnc(C(=O)N[C@@H](Cc3c[nH]c4ccccc34)C(=O)OC(C)(C)C)c2C(=O)N1`, the IC50 is 24.7 µM (inactive).
The value for `O=C(Nc1cccc(/C=C/c2ccccn2)c1)c1ccc(-n2cncn2)cc1` was > 79 µM (inactive).
`CC1(C)Oc2ccc3ccc(=O)oc3c2/C(=C/Nc2ccccn2)C1=O`: the IC50 is 12.4 µM (inactive).
In the case of `O=c1cc(-c2cccnc2)oc2c1ccc1ccccc12`, the IC50 is 16.4 µM (inactive).
On to `Cn1c(=O)[nH]c(=O)c2c1nc(Br)n2CC(O)COc1ccc(Cl)cc1` (stereo not drawn), for which the IC50 is 22.8 µM (inactive).
With `CC(=O)Nc1cc(-c2cccc(NS(C)(=O)=O)c2)cn2c(-c3cccc(C(C)=O)c3)cnc12` the figure was 16.2 µM (inactive); with `COC(=O)c1[nH]c2ccccc2c1NC(=O)CNC1CCCCC1`, 13.5 µM (inactive).
With `Cc1nn(-c2ccccc2)c(N2CCCC2)c1/C=N/NC(=O)c1cc(-c2ccccn2)nc2ccccc12` the figure was 12.6 µM (inactive); with `O=C(c1ccco1)N1CCN(C(=O)c2cc(-c3ccncc3)nc3ccc(Br)cc23)CC1`, 25.8 µM (inactive).
The value for `CCn1nc(C(=O)NNC(=O)c2cc(Cl)ccc2OC)c2ccccc2c1=O` was > 79 µM (inactive).
